In experiment [1] the test system is Cenchrus americanus. Kind of experiment: Induction of systemic acquired resistance against Sclerospora graminicola in Cenchrus americanus cultivar 7042S assessed as protection against downy mildew disease at 20 mM applied to seeds prior to sowing followed by inoculation on 2 day old seedling measured on day 30 in green house conditions (reference value: 3%). The experiment is classed as functional.

Experiment [2] concerns Cenchrus americanus. Kind of experiment: Stimulation of seed germination in Cenchrus americanus cultivar 7042S at 20 mM incubated for 6 hr followed by sowing measured at 7-day old seedling stage (reference value: 88%). It is filed as functional.
Experiment [3] deals with Cenchrus americanus. Kind of experiment: Increase in seed vigor in Cenchrus americanus cultivar 7042S at 20 mM incubated for 6 hr followed by sowing measured at 7-day old seedling stage relative to control. It is filed as functional, organism-based.
Experiment [4] relates to Cenchrus americanus. Kind of experiment: Effect on seed vigor in Cenchrus americanus cultivar 7042S assessed as vigor index at 20 mM incubated for 6 hr followed by sowing measured at 7-day old seedling stage (reference value: 990). The experiment is classed as functional.
Experiment [5] deals with Cenchrus americanus. Kind of experiment: Effect on growth parameter in disease-susceptible Cenchrus americanus cultivar 7042S assessed as weight of 1000 seeds at 20 mM applied to seeds prior to sowing (reference value: 7.4 +/- 1.4 g). The experiment is classed as functional.
Experiment [6] has as its system Cenchrus americanus. Kind of experiment: Effect on growth parameter in disease-susceptible Cenchrus americanus cultivar 7042S assessed as yield at 20 mM applied to seeds prior to sowing (reference value: 1209 +/- 9 kg/ha). It is filed as functional.
For experiment [7], the system named is Cenchrus americanus. Kind of experiment: Induction of systemic acquired resistance against Sclerospora graminicola in Cenchrus americanus cultivar 7042S assessed as protection against downy mildew disease at 20 mM applied to seeds prior to sowing followed by inoculation at cleoptile stage at day 4 post seedling emergence measured on day 30 in green house conditions relative to control. The experiment is classed as functional.

The subject of experiment [8] is Cenchrus americanus. In words: Effect on growth parameter in disease-susceptible Cenchrus americanus cultivar 7042S assessed as girth of ear at 20 mM applied to seeds prior to sowing measured after 60 days (reference value: 3.6 +/- 0.9 cm). The experiment is classed as functional.
Experiment [9] relates to Cenchrus americanus. Kind of experiment: Induction of systemic acquired resistance against Sclerospora graminicola in Cenchrus americanus cultivar 7042S assessed as protection against downy mildew disease at 20 mM applied to seeds prior to sowing followed by inoculation at cleoptile stage at day 6 post seedling emergence measured on day 30 in green house conditions relative to control. The experiment is classed as functional.

The subject of experiment [10] is Cenchrus americanus. Kind of experiment: Induction of systemic acquired resistance against Sclerospora graminicola in Cenchrus americanus cultivar 7042S assessed as protection against downy mildew disease at 20 mM applied to seeds prior to sowing followed by inoculation at cleoptile stage at day 5 post seedling emergence measured on day 30 in green house conditions relative to control. The experiment is classed as functional.

The subject of experiment [11] is Cenchrus americanus. Kind of experiment: Induction of systemic acquired resistance against Sclerospora graminicola in Cenchrus americanus cultivar 7042S assessed as protection against downy mildew disease at 20 mM applied to seeds prior to sowing followed by inoculation at cleoptile stage at day 1 post seedling emergence measured on day 30 in green house conditions relative to control. It is filed as functional.

The test system of experiment [12] is Cenchrus americanus. In words: Induction of systemic acquired resistance against Sclerospora graminicola in Cenchrus americanus cultivar 7042S assessed as protection against downy mildew disease at 20 mM applied to seeds prior to sowing followed by inoculation on 2 day old seedling and challenge-inoculation to the nodal tiller measured on day 60 in green house condition relative to control. The experiment is classed as functional.

The subject of experiment [13] is Cenchrus americanus. In words: Effect on growth parameter in disease-susceptible Cenchrus americanus cultivar 7042S assessed as increase in prodcutive tillers at 20 mM applied to seeds prior to sowing measured after 60 days relative to control. It is filed as functional, organism-based.
The subject of experiment [14] is Cenchrus americanus. Kind of experiment: Induction of systemic acquired resistance against Sclerospora graminicola in Cenchrus americanus cultivar 7042S assessed as protection against downy mildew disease at 20 mM applied to seeds prior to sowing followed by inoculation at cleoptile stage at day 2 post seedling emergence measured on day 30 in green house conditions relative to control. It is filed as functional.

In experiment [15] the test system is Cenchrus americanus. In words: Induction of systemic acquired resistance against Sclerospora graminicola in Cenchrus americanus cultivar 7042S assessed as protection against downy mildew disease at 20 mM applied to seeds prior to sowing followed by inoculation on 2 day old seedling measured on day 30 in field conditions (reference value: 3%). It is filed as functional.

In experiment [16] the test system is Cenchrus americanus. In words: Induction of systemic acquired resistance against Sclerospora graminicola in Cenchrus americanus cultivar 7042S assessed as protection against downy mildew disease at 20 mM applied to seeds prior to sowing followed by inoculation on 2 day old seedling and challenge-inoculation to the inflorescence primordia at boot leaf stage measured on day 60 in green house condition relative to control. It is filed as functional.

Experiment [17] relates to Cenchrus americanus. Kind of experiment: Stimulation of growth in downy mildew disease-susceptible Cenchrus americanus cultivar 7042S assessed as plant height at 20 mM applied to seeds prior to sowing measured after 60 days (reference value: 58.5 cm). It is filed as functional.
For experiment [18], the system named is Cenchrus americanus. In words: Effect on growth parameter in disease-susceptible Cenchrus americanus cultivar 7042S assessed as length of ear at 20 mM applied to seeds prior to sowing measured after 60 days (reference value: 9.4 +/- 0.8 cm). It is filed as functional.
The test system of experiment [19] is Cenchrus americanus. Kind of experiment: Stimulation of flowering in downy mildew disease-susceptible Cenchrus americanus cultivar 7042S assessed as days required for 50% flowering at 20 mM applied to seeds prior to sowing measured after 60 days (reference value: 44 +/- 0.7 days ). It is filed as functional.
For experiment [20], the system named is Cenchrus americanus. In words: Induction of systemic acquired resistance against Sclerospora graminicola in Cenchrus americanus cultivar 7042S assessed as protection against downy mildew disease at 20 mM applied to seeds prior to sowing followed by inoculation at cleoptile stage at day 3 post seedling emergence measured on day 30 in green house conditions relative to control. The experiment is classed as functional.

Experiment [21] relates to Cenchrus americanus. Kind of experiment: Induction of systemic acquired resistance against Sclerospora graminicola in Cenchrus americanus cultivar 7042S assessed as protection against downy mildew disease at 20 mM applied to seeds prior to sowing and to foliar of 7 day old seedling inoculated on day 2 measured on day 30 in field conditions (reference value: 3%). It is filed as functional.

Experiment [22] relates to Cenchrus americanus. Kind of experiment: Induction of systemic acquired resistance against Sclerospora graminicola in Cenchrus americanus cultivar 7042S assessed as protection against downy mildew disease at 20 mM applied to foliar of 7 day old seedling inoculated on day 2 measured on day 30 in field conditions (reference value: 2%). The experiment is classed as functional.

In experiment [23] the test system is Cenchrus americanus. In words: Induction of systemic acquired resistance against Sclerospora graminicola in Cenchrus americanus cultivar 7042S assessed as protection against downy mildew disease at 6 g/kg applied to foliar of 7 day old seedling inoculated on day 2 measured on day 30 in field conditions (reference value: 2%). It is filed as functional.
For experiment [24], the system named is Cenchrus americanus. Kind of experiment: Induction of systemic acquired resistance against Sclerospora graminicola in Cenchrus americanus cultivar 7042S assessed as protection against downy mildew disease at 6 g/kg applied to seeds prior to sowing followed by inoculation on 2 day old seedling measured on day 30 in green house condition(reference value: 3%). It is filed as functional.

Experiment [25] deals with Cenchrus americanus. Kind of experiment: Induction of systemic acquired resistance against Sclerospora graminicola in Cenchrus americanus cultivar 7042S assessed as protection against downy mildew disease at 6 g/kg applied to seeds prior to sowing and to foliar of 7 day old seedling inoculated on day 2 measured on day 30 in field conditions (reference value: 3%). The experiment is classed as functional.

Experiment [26] concerns Cenchrus americanus. Kind of experiment: Induction of systemic acquired resistance against Sclerospora graminicola in Cenchrus americanus cultivar 7042S assessed as protection against downy mildew disease at 6 g/kg applied to seeds prior to sowing followed by inoculation on 2 day old seedling measured on day 30 in field conditions (reference value: 3%). The experiment is classed as functional.

Here are results for 7 compounds from ChEMBL document CHEMBL3044918, “Ability of vitamins to induce downy mildew disease resistance and growth promotion in pearl millet” (2007).

The source made the active and inactive calls. The calls are words filed in the database; no cut-off is given here.

As for `O=C(O)CCCC[C@@H]1SC[C@@H]2NC(=O)N[C@@H]21` [BIOTIN], the figures for the Activity in experiment [1] and in [2] were 51% and 91%, respectively. Moreover, the outcome in experiment [3] was Active.

For the compound `Nc1nc(=O)c2nc(CNc3ccc(C(=O)N[C@@H](CCC(=O)O)C(=O)O)cc3)cnc2[nH]1` [FOLIC ACID], the Activity in experiment [1] was determined as 42%; in experiment [2] it was 90%. The outcome in experiment [3] was Active.

In the case of `CC1(S(=O)(=O)[O-])CC(=O)c2ccccc2C1=O.[Na+]` (stereo not given) [MENADIONE SODIUM BISULPHITE], the Vigour_index in [4] was found to be 1312. The Activity came to 11.74 g in [5]; 1328 kg/ha in experiment [6]; 73% in experiment [7]; 4.1 cm in [8]; 74% in experiment [9]; 73% in experiment [1]. Further, the Activity in experiment [2] is 93%; in experiment [10], 74%; in experiment [11], 46%; in experiment [12], 77%; in [14], 51%; in [15], 68%. Further, the Activity in experiment [16] is 79%; in experiment [17] it was 68 cm; in [18] it was 12 cm; in [20] it was 65%; in [21], 72%; in experiment [22] it was 66%. Moreover, the result in experiment [13] was Active. In experiment [19], the Time came out at 40 days.

With `COCC(=O)N(c1c(C)cccc1C)C(C)C(=O)OC` (stereo not given) [METALAXYL], the Activity in experiment [23] came out at 91%; in experiment [24], 92%; in experiment [25], 92%; in experiment [26] it was 92%.

In the case of `O=C(O)c1cccnc1` [NIACIN], the Vigour_index in experiment [4] is 1217. The Activity in experiment [5] worked out at 10.97 g; in [6] it was 1306 kg/ha; in experiment [7], 63%; in experiment [8], 4 cm; in experiment [9], 63%; in [1] it was 63%. The Activity in [2] came out at 92%; in experiment [10], 63%; in experiment [11] it was 45%; in experiment [12], 69%; in [14], 51%; in experiment [15], 63%. Also, the Activity in experiment [16] amounted to 71%; in experiment [17], 66 cm; in [18], 11.8 cm; in [20], 56%; in experiment [21], 65%; in experiment [22], 60%. Moreover, the result in experiment [13] was Active. Also, the Time in [19] stood at 42 days.

With `Cc1ncc(CO)c(CO)c1O` [PYRIDOXINE], the Activity in experiment [1] is 44%; in [2] it was 91%. In addition, in experiment [3], the outcome was Active.

Consider `Cc1cc2nc3c(=O)[nH]c(=O)nc-3n(C[C@H](O)[C@H](O)[C@H](O)CO)c2cc1C` [RIBOFLAVIN], for which the Activity in [5] is 9.5 g; in [6], 1281 kg/ha; in experiment [7] it was 63%; in experiment [8] it was 3.9 cm; in experiment [9], 63%; in experiment [1], 62%. For the same compound, the Activity in [2] amounted to 92%; in experiment [10] it was 63%; in experiment [11], 43%; in experiment [12], 64%; in experiment [14], 50%; in experiment [15], 61%. The Activity was determined as 69% in experiment [16]; 62 cm in [17]; 11.4 cm in experiment [18]; 55% in experiment [20]; 67% in experiment [21]; 61% in [22]. The result in [13] was Active. The Time in [19] was determined as 43 days.
